The text below walks through data of US20260116910A1, “POLYCYCLIC COMPOUNDS AND METHODS THEREOF” (HEPAITECH (BEIJING) BIOPHARMA TECHNOLOGY CO., LTD., priority 2021, published 2026).

A value given as a limit tells only on which side of the number the result lay.

The target of one experiment is MRGPRX4 (Homo sapiens, UniProt Q96LA9). In words: MRGPRX4 activation, Fluo-8 Ca2+ FLIPR assay in HEK293T cells stably expressing MRGPRX4. It is filed as cell-based. Set-up: key to MRGPRX4 activation, Average / MRGPRX4 activation, Ave.: fluorescence change dF/F0. The settings on record: for EC50: MRGPRX4 activation, Ca2+ fluorescence, no activation in tested range reported as III, read-out: Activity (EC50 μM). In outline:
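Cells seeded overnight to >95% confluence, loaded 40-60 min at room temperature with 2 μM Fluo-8 AM, then kept in HHBS. Baseline read 30 s, compound added, signal followed 150 s more.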

Another experiment concerns the target T1, human FXR (NR1H4) (Homo sapiens, UniProt Q96RI1).
T1 sequence (Q96RI1 1-476 isoform Q96RI1-1): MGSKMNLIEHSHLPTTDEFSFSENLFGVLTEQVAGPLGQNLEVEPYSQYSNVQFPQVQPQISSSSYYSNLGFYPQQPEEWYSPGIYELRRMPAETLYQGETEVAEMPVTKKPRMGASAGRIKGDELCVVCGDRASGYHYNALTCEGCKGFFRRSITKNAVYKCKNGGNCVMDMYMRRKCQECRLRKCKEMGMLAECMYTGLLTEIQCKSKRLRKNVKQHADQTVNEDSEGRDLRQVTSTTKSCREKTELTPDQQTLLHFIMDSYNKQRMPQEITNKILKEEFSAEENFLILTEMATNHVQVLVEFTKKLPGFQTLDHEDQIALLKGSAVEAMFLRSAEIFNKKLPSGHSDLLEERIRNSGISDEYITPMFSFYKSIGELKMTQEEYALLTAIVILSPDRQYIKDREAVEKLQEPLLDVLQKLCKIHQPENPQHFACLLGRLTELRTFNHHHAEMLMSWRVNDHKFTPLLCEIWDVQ
The experiment is described as follows: Human FXR (NR1H4) agonist assessment, FXRE-NanoLuc reporter in HEK293T cells. It is filed as cell-based. The settings on record: FXR activation, HEK293T FXRE-NanoLuc reporter, 24 hr; for EC50: read-out: EC50. In outline: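 HEK293T cells stably expressing human FXR with an FXRE-NanoLuc reporter were treated with compounds for 24 hr at 37 °C, with 0.01% DMSO as negative control. Medium was read for luminescence after 5 min with coelenterazine. EC50 was fitted by sigmoid to concentration-response data.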

MRGPRX4, sequence (Q96LA9 whole entry): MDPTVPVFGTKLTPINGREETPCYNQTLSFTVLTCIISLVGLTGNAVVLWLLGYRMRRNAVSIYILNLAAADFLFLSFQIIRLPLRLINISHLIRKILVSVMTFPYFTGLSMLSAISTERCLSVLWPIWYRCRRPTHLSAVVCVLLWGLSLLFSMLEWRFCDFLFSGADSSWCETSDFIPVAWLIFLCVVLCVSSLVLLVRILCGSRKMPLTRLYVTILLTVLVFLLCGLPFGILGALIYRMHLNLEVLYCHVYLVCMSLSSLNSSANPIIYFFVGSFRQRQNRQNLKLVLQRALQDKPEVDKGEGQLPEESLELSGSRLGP

What is called EC50 is the concentration giving half of the maximal effect. In the case of `CC[C@H]1[C@@H](O)[C@@H]2[C@H](CC[C@]3(C)[C@@H]([C@H](C)CCNC(=O)NS(=O)(=O)c4ccc(C(C)(C)C(N)=O)cc4)CC[C@@H]23)[C@@]2(C)CCCC[C@@H]12` [5-16], the “MRGPRX4 activation, fluorescence change (dF/F0), Average” value (shortened to “MRGPRX4 activation, fluorescence change”) turned out to be 0.030 on MRGPRX4 (Conc. (Log[M]) −4.0); 0.020 on MRGPRX4 (Conc. (Log[M]) −4.5); 0.010 on MRGPRX4 (Conc. (Log[M]) −5.0); 0.020 at MRGPRX4 (Conc. (Log[M]) −5.4); 0.020 at MRGPRX4 (Conc. (Log[M]) −5.9); 0.013 on MRGPRX4 (Conc. (Log[M]) −6.4). Moreover, the “MRGPRX4 activation, fluorescence change” value on MRGPRX4 (Conc. (Log[M]) −6.9) came to 0.013; at MRGPRX4 (Conc. (Log[M]) −7.3), 0.013; at MRGPRX4 (Conc. (Log[M]) −7.8), 0.013; at MRGPRX4 (Conc. (Log[M]) −8.3), 0.025. For the same molecule, the results for the EC50 at MRGPRX4 and at human FXR (NR1H4) were above 100 µM and below 1 µM, respectively. Besides, on human FXR (NR1H4), the “Efficacy (maximum measured induction of NanoLuc, normalized to CDCA set as 100%)” value is “C (100%<efficacy <=300%)”.

`CC[C@H]1[C@@H](O)[C@@H]2[C@H](CC[C@]3(C)[C@@H]([C@H](C)CCNC(=O)NS(=O)(=O)c4ccc(C(C)(C)C#N)cc4)CC[C@@H]23)[C@@]2(C)CCCC[C@@H]12` [5-17]: the “MRGPRX4 activation, fluorescence change” value is 0.016 on MRGPRX4 (Conc. (Log[M]) −4.0); 0.018 on MRGPRX4 (Conc. (Log[M]) −4.5); 0.019 on MRGPRX4 (Conc. (Log[M]) −5.0); 0.016 at MRGPRX4 (Conc. (Log[M]) −5.4); 0.018 at MRGPRX4 (Conc. (Log[M]) −5.9); 0.018 on MRGPRX4 (Conc. (Log[M]) −6.4). Besides, the “MRGPRX4 activation, fluorescence change” value is reported as 0.011 on MRGPRX4 (Conc. (Log[M]) −6.9), 0.018 on MRGPRX4 (Conc. (Log[M]) −7.3), 0.020 at MRGPRX4 (Conc. (Log[M]) −7.8) and 0.013 on MRGPRX4 (Conc. (Log[M]) −8.3). For the same molecule, the EC50 was above 100 µM at MRGPRX4 and below 1 µM at human FXR (NR1H4). The “Efficacy (maximum measured induction of NanoLuc, normalized to CDCA set as 100%)” value on human FXR (NR1H4) is “C (100%<efficacy <=300%)”.

`CC[C@H]1[C@@H](O)[C@@H]2[C@H](CC[C@]3(C)[C@@H]([C@H](C)CCNC(=O)NS(=O)(=O)c4ccc(C(C)(C)CN)cc4)CC[C@@H]23)[C@@]2(C)CCCC[C@@H]12` [5-18]: the “MRGPRX4 activation, fluorescence change” value on MRGPRX4 (Conc. (Log[M]) −4.0) came out at 0.018; on MRGPRX4 (Conc. (Log[M]) −4.5), 0.008; at MRGPRX4 (Conc. (Log[M]) −5.0) it was 0.021; at MRGPRX4 (Conc. (Log[M]) −5.4), 0.021; on MRGPRX4 (Conc. (Log[M]) −5.9) it was 0.021; on MRGPRX4 (Conc. (Log[M]) −6.4), 0.021. In addition, the “MRGPRX4 activation, fluorescence change” value is on record as 0.011 on MRGPRX4 (Conc. (Log[M]) −6.9), 0.018 on MRGPRX4 (Conc. (Log[M]) −7.3), 0.020 at MRGPRX4 (Conc. (Log[M]) −7.8) and 0.013 at MRGPRX4 (Conc. (Log[M]) −8.3). Moreover, the EC50 on MRGPRX4 is above 100 µM; at human FXR (NR1H4), below 1 µM. The “Efficacy (maximum measured induction of NanoLuc, normalized to CDCA set as 100%)” value at human FXR (NR1H4) is listed as “B (300%<efficacy <=400%)”.

As to `CC[C@H]1[C@@H](O)[C@@H]2[C@H](CC[C@]3(C)[C@@H]([C@H](C)CCNC(=O)NS(=O)(=O)c4ccc(C5(CO)CCCC5)cc4)CC[C@@H]23)[C@@]2(C)CCCC[C@@H]12` [5-21], the “MRGPRX4 activation, fluorescence change” value on MRGPRX4 (Conc. (Log[M]) −4.0) worked out at 0.018; on MRGPRX4 (Conc. (Log[M]) −4.5), 0.016; on MRGPRX4 (Conc. (Log[M]) −5.0), 0.020; on MRGPRX4 (Conc. (Log[M]) −5.4) it was 0.018; on MRGPRX4 (Conc. (Log[M]) −5.9), 0.018; on MRGPRX4 (Conc. (Log[M]) −6.4) it was 0.016. Further, the “MRGPRX4 activation, fluorescence change” value was 0.018 on MRGPRX4 (Conc. (Log[M]) −6.9), 0.016 at MRGPRX4 (Conc. (Log[M]) −7.3), 0.020 on MRGPRX4 (Conc. (Log[M]) −7.8) and 0.018 on MRGPRX4 (Conc. (Log[M]) −8.3). Moreover, the EC50 is above 100 µM at MRGPRX4 and below 1 µM at human FXR (NR1H4). On human FXR (NR1H4), the “Efficacy (maximum measured induction of NanoLuc, normalized to CDCA set as 100%)” value was “C (100%<efficacy <=300%)”.

Turning to `CC[C@H]1[C@@H](O)[C@@H]2[C@H](CC[C@]3(C)[C@@H]([C@H](C)CCNC(=O)NS(=O)(=O)c4ccc(C(C)(CO)CO)cc4)CC[C@@H]23)[C@@]2(C)CCCC[C@@H]12` [5-22], the “MRGPRX4 activation, fluorescence change” value at MRGPRX4 (Conc. (Log[M]) −4.0) is given as 0.020; on MRGPRX4 (Conc. (Log[M]) −4.5), 0.018; at MRGPRX4 (Conc. (Log[M]) −5.0) it was 0.013; at MRGPRX4 (Conc. (Log[M]) −5.4), 0.013; at MRGPRX4 (Conc. (Log[M]) −5.9) it was 0.011; on MRGPRX4 (Conc. (Log[M]) −6.4), 0.016. Moreover, the “MRGPRX4 activation, fluorescence change” value at MRGPRX4 (Conc. (Log[M]) −6.9) is given as 0.016; on MRGPRX4 (Conc. (Log[M]) −7.3) it was 0.018; on MRGPRX4 (Conc. (Log[M]) −7.8) it was 0.014; on MRGPRX4 (Conc. (Log[M]) −8.3), 0.016. In addition, the EC50 at MRGPRX4 was above 100 µM; on human FXR (NR1H4) it was below 1 µM. In addition, on human FXR (NR1H4), the “Efficacy (maximum measured induction of NanoLuc, normalized to CDCA set as 100%)” value is on record as “C (100%<efficacy <=300%)”.

As for `CC[C@H]1[C@@H](O)[C@@H]2[C@H](CC[C@]3(C)[C@@H]([C@H](C)CCNC(=O)NS(=O)(=O)c4cc(F)ccc4F)CC[C@@H]23)[C@@]2(C)CCCC[C@@H]12` [5-23], the “MRGPRX4 activation, Ave.” value on MRGPRX4 (E3-7, Conc. (Log[M]) −4) was −0.027; on MRGPRX4 (E3-7, Conc. (Log[M]) −4.5) it was −0.027; at MRGPRX4 (E3-7, Conc. (Log[M]) −5), −0.014; on MRGPRX4 (E3-7, Conc. (Log[M]) −5.5), −0.054; at MRGPRX4 (E3-7, Conc. (Log[M]) −6), −0.041; at MRGPRX4 (E3-7, Conc. (Log[M]) −7), 0.000. The values for the EC50 on MRGPRX4 and on human FXR (NR1H4) were above 100 µM and below 1 µM, respectively. In addition, the “Efficacy (maximum measured induction of NanoLuc, normalized to CDCA set as 100%)” value on human FXR (NR1H4) was “A (efficacy >400%)”.

With `CC[C@H]1[C@@H](O)[C@@H]2[C@H](CC[C@]3(C)[C@@H]([C@H](C)CCNC(=O)NS(=O)(=O)c4cc(F)cc(F)c4)CC[C@@H]23)[C@@]2(C)CCCC[C@@H]12` [5-24], the “MRGPRX4 activation, fluorescence change” value stood at 0.021 at MRGPRX4 (Conc. (Log[M]) −4.0); 0.012 on MRGPRX4 (Conc. (Log[M]) −4.5); 0.021 at MRGPRX4 (Conc. (Log[M]) −5.0); 0.019 at MRGPRX4 (Conc. (Log[M]) −5.4); 0.011 on MRGPRX4 (Conc. (Log[M]) −5.9); 0.013 on MRGPRX4 (Conc. (Log[M]) −6.4). Moreover, the “MRGPRX4 activation, fluorescence change” value at MRGPRX4 (Conc. (Log[M]) −6.9) was determined as 0.013; on MRGPRX4 (Conc. (Log[M]) −7.3) it was 0.013; on MRGPRX4 (Conc. (Log[M]) −7.8) it was 0.008; on MRGPRX4 (Conc. (Log[M]) −8.3) it was 0.011. Besides, at human FXR (NR1H4), the “Efficacy (maximum measured induction of NanoLuc, normalized to CDCA set as 100%)” value is recorded as “B (300%<efficacy <=400%)”. At human FXR (NR1H4), the EC50 is below 1 µM.

With `CC[C@H]1[C@@H](O)[C@@H]2[C@H](CC[C@]3(C)[C@@H]([C@H](C)CCNC(=O)NS(=O)(=O)c4cccs4)CC[C@@H]23)[C@@]2(C)CCCC[C@@H]12` [5-25], the “MRGPRX4 activation, Average” value is given as 0.393 on MRGPRX4 (E3-9, Conc. (Log[M]) −4.0); 0.016 at MRGPRX4 (E3-9, Conc. (Log[M]) −4.5); 0.001 at MRGPRX4 (E3-9, Conc. (Log[M]) −5.0); 0.016 on MRGPRX4 (E3-9, Conc. (Log[M]) −5.4); 0.011 at MRGPRX4 (E3-9, Conc. (Log[M]) −5.9); 0.011 at MRGPRX4 (E3-9, Conc. (Log[M]) −6.4). Besides, the “MRGPRX4 activation, Average” value on MRGPRX4 (E3-9, Conc. (Log[M]) −6.9) stood at 0.008; on MRGPRX4 (E3-9, Conc. (Log[M]) −7.3), 0.013; on MRGPRX4 (E3-9, Conc. (Log[M]) −7.8), 0.013; on MRGPRX4 (E3-9, Conc. (Log[M]) −8.3), 0.018. The results for the EC50 at MRGPRX4 and on human FXR (NR1H4) were above 100 µM and 1 to 10 µM, respectively. Further, the “Efficacy (maximum measured induction of NanoLuc, normalized to CDCA set as 100%)” value on human FXR (NR1H4) was “C (100%<efficacy <=300%)”.
